Source: ChEMBL document CHEMBL6078667, “Synthesis, Biological Evaluation, and Mechanistic Insights of Rubrolide Analogues as Antitumor Agents” (J Nat Prod, 2024)
Active and inactive are the calls of the source. The rule behind the calls is not given here.

Legend:
[1] = system: U-87 MG; test: Cytotoxicity against human U-87 MG cells assessed as inhibition of cell growth at 10 uM measured after 72 hrs by MTT assay relative to control; assay type: functional, U-87MG ATCC
[2] = system: HCT-116; test: Induction of apoptosis in human HCT-116 cells assessed as late apoptotic cells at 0.2 uM incubated for 24 hrs by Annexin V-FITC/PI staining based analysis (reference value: 0.095 %); assay type: functional
[3] = system: MCF7; test: Cytotoxicity against human MCF7 cells assessed as inhibition of cell growth at 10 uM measured after 72 hrs by MTT assay relative to control; assay type: functional
[4] = system: U-87 MG; test: Cytotoxicity against human U-87 MG cells assessed as survival rate at 10 uM measured after 72 hrs by MTT assay relative to control; assay type: functional, U-87MG ATCC; settings: read-out: Survival
[5] = system: HeLa; test: Cell cycle arrest in human HeLa cells assessed as accumulation of cells at G0/G1 phase at 0.2 uM measured after 24 hrs by PI staining based flow cytometric analysis (reference value: 54.7 %); assay type: functional
[6] = system: HCT-116; test: Upregulation of phosphorylated eIF2alpha expression in human HCT-116 cells at 0.2 to 0.4 uM measured after 48 hrs by Western blot analysis; assay type: functional, cell-based; settings: dose 0.2-0.4 µM
[7] = system: HeLa; test: Induction of apoptosis in human HeLa cells assessed as late apoptotic cells at 0.4 uM incubated for 24 hrs by Annexin V-FITC/PI staining based flow cytometric analysis (reference value: 6.58 %); assay type: functional
[8] = system: HCT-116; test: Induction of ROS production in human HCT-116 cells assessed as fold change at 0.2 to 0.4 uM incubated for 24 hrs by DCFH-DA probe based flow cytometric analysis; assay type: functional; settings: dose 0.2-0.4 µM
[9] = system: HCT-116; test: Cell cycle arrest in human HCT-116 cells assessed as accumulation of cells at G2/M phase at 0.2 uM measured after 24 hrs by PI staining based flow cytometric analysis (reference value: 26.4 %); assay type: functional
[10] = system: MKN-45; test: Cytotoxicity against human MKN-45 cells assessed as inhibition of cell growth at 10 uM measured after 72 hrs by MTT assay relative to control; assay type: functional
[11] = system: HeLa; test: Antitumor activity against human HeLa cells xenografted in female BALB/c nude mouse assessed as reduction in tumor cell growth administered intraperitoneally as liposome formulation once daily for 13 days; assay type: functional; settings: dose 5-20 mg/kg, route ip, time 13.0 day
[12] = system: HeLa; test: Induction of apoptosis in human HeLa cells assessed as early apoptotic cells at 0.2 uM incubated for 24 hrs by Annexin V-FITC/PI staining based flow cytometric analysis (reference value: 2.35 %); assay type: functional
[13] = system: HCT-116; test: Cytotoxicity against human HCT-116 cells assessed as survival rate at 10 uM measured after 72 hrs by MTT assay relative to control; assay type: functional; settings: read-out: Survival
[14] = system: U-87 MG; test: Cytotoxicity against human U-87 MG cells assessed as inhibition of cell growth incubated for 72 hrs by MTT assay; assay type: functional, cell-based, U-87MG ATCC
[15] = Drug localization in human HCT-116 cell mitochondria incubated for 8 hrs by Mito-tracker green dye based fluorescence microscopic analysis; assay type: ADME; settings: hct-116, 8 h
[16] = system: HCT-116; test: Induction of ROS production in human HCT-116 cells at 0.2 to 0.4 uM incubated for 24 hrs by DCFH-DA probe based flow cytometric analysis; assay type: functional, cell-based; settings: dose 0.2-0.4 µM
[17] = Selectivity index, ratio of IC50 for HHL-5 cells to IC50 for human HeLa cells; assay type: toxicity; settings: HHL-5 cells and HeLa cells, pooled result: one value given for 6 cell lines, strains, targets or settings, read-out: Ratio IC50
[18] = Drug localization in human HeLa cell endoplasmic reticulum incubated for 8 hrs by […] dye based fluorescence microscopic analysis; assay type: ADME, subcellular
[19] = system: MCF7; test: Cytotoxicity against human MCF7 cells assessed as inhibition of cell growth incubated for 72 hrs by MTT assay; assay type: functional, cell-based; settings: MCF7, 72 h
[20] = system: HCT-116; test: Upregulation of phosphorylated PERK expression in human HCT-116 cells at 0.2 to 0.4 uM measured after 48 hrs by Western blot analysis; assay type: functional, cell-based; settings: dose 0.2-0.4 µM
[21] = system: HeLa; test: Induction of apoptosis in human HeLa cells assessed as late apoptotic cells at 0.2 uM incubated for 24 hrs by Annexin V-FITC/PI staining based flow cytometric analysis (reference value: 6.58 %); assay type: functional
[22] = system: HCT-116; test: Upregulation of CHOP expression in human HCT-116 cells at 0.2 to 0.4 uM measured after 48 hrs by Western blot analysis; assay type: functional, cell-based; settings: dose 0.2-0.4 µM
[23] = system: HeLa; test: Induction of apoptosis in human HeLa cells assessed as necrotic cells at 0.4 uM incubated for 24 hrs by Annexin V-FITC/PI staining based flow cytometric analysis (reference value: 0.44 %); assay type: functional
[24] = Drug localization in human HCT-116 cell endoplasmic reticulum incubated for 8 hrs by […] dye based fluorescence microscopic analysis; assay type: ADME, subcellular; settings: hct-116, 8 h
[25] = system: MGC-803; test: Cytotoxicity against human MGC-803 cells assessed as inhibition of cell growth incubated for 72 hrs by MTT assay; assay type: functional, cell-based; settings: MGC-803, 72 h
[26] = system: HCT-116; test: Induction of apoptosis in human HCT-116 cells assessed as early apoptotic cells at 0.4 uM incubated for 24 hrs by Annexin V-FITC/PI staining based analysis (reference value: 7.40 %); assay type: functional
[27] = system: HeLa; test: Antitumor activity against human HeLa cells xenografted in female BALB/c nude mouse assessed as reduction in tumor cell weight at 20 mg/kg, ip administered as liposome formulation once daily for 13 days relative to control; assay type: functional; design: scale not given: the % may be the effect or the level left; settings: time 13 day
[28] = system: MCF7; test: Cytotoxicity against human MCF7 cells assessed as survival rate at 10 uM measured after 72 hrs by MTT assay relative to control; assay type: functional; settings: read-out: Survival
[29] = system: HeLa; test: Cell cycle arrest in human HeLa cells assessed as accumulation of cells at G0/G1 phase at 0.4 uM measured after 24 hrs by PI staining based flow cytometric analysis (reference value: 54.7 %); assay type: functional
[30] = system: HeLa; test: Induction of apoptosis in human HeLa cells assessed as early apoptotic cells at 0.4 uM incubated for 24 hrs by Annexin V-FITC/PI staining based flow cytometric analysis (reference value: 2.35 %); assay type: functional
[31] = system: HCT-116; test: Cytotoxicity against human HCT-116 cells assessed as inhibition of cell growth incubated for 72 hrs by MTT assay; assay type: functional, cell-based; settings: HCT-116, 72 h
[32] = system: HCT-116; test: Induction of apoptosis in human HCT-116 cells assessed as early apoptotic cells at 0.2 uM incubated for 24 hrs by Annexin V-FITC/PI staining based analysis (reference value: 7.40 %); assay type: functional
[33] = system: HCT-116; test: Induction of apoptosis in human HCT-116 cells assessed as late apoptotic cells at 0.4 uM incubated for 24 hrs by Annexin V-FITC/PI staining based analysis (reference value: 0.095 %); assay type: functional
[34] = system: HeLa; test: Upregulation of CHOP expression in human HeLa cells at 0.2 to 0.4 uM measured after 48 hrs by Western blot analysis; assay type: functional, cell-based; settings: dose 0.2-0.4 µM
[35] = system: HeLa; test: Induction of apoptosis in human HeLa cells assessed as viable cells at 0.2 uM incubated for 24 hrs by Annexin V-FITC/PI staining based flow cytometric analysis (reference value: 90.6 %); assay type: functional; settings: read-out: Activity
[36] = system: HeLa; test: Cell cycle arrest in human HeLa cells assessed as increase in cyclin B1 expression at 0.2 to 0.4 uM incubated for 24 hrs by Western blot analysis; assay type: functional, cell-based; settings: dose 0.2-0.4 µM
[37] = system: HeLa; test: Cell cycle arrest in human HeLa cells assessed as accumulation of cells at G2/M phase at 0.4 uM measured after 24 hrs by PI staining based flow cytometric analysis (reference value: 22.8 %); assay type: functional

With `COc1ccc(C2=CC(=O)O/C2=C\c2ccc(O)cc2)cc1` the inhibition at 10 µM [1] was greater than 50%, the Activity [2] was 7.71% and the inhibition at 10 µM [3] was greater than 50%. For the same molecule, the viability at 10 µM [4] was 12.4%, the Activity [5] was 18.8% and the Activity [6] was “Active; Compound Impacts Endoplasmic Reticulum Stress Related Perk-Eif2Alpha-Chop Signalling Pathway”. The Activity [7] was 40.6%, the “fold change (FC)” value [8] was greater than 4 and the Activity [9] was 22.8%. For the same molecule, the inhibition at 10 µM [10] was greater than 50%, the Activity [11] was “Dose-dependent-effect” and the Activity [12] was 4.86%. The viability at 10 µM [13] was 19.7%, the IC50 [14] was 2.4 µM and the Drug uptake [15] was “Not_active”. The Activity [16] was “Active”, the selectivity ratio [17] was 2.6 and the Drug uptake [18] was “Active”. The IC50 [19] was 1 µM, the Activity [20] was “Active; Compound Impacts Endoplasmic Reticulum Stress Related Perk-Eif2Alpha-Chop Signalling Pathway” and the Activity [21] was 11.5%. For the same molecule, the Activity [22] was “Active; Compound Impacts Endoplasmic Reticulum Stress Related Perk-Eif2Alpha-Chop Signalling Pathway”, the Activity [23] was 1% and the Drug uptake [24] was “Active”. The IC50 [25] was 1.1 µM, the Activity [26] was 8.33% and the Activity [27] was 50%. The viability at 10 µM [28] was 24.8%, the Activity [29] was 8.71% and the Activity [30] was 10.5%. For the same molecule, the IC50 [31] was 0.2 µM, the Activity [32] was 3.69% and the Activity [33] was 14.7%. For the same molecule, the Activity [34] was “Active; Compound Impacts Endoplasmic Reticulum Stress Related Perk-Eif2Alpha-Chop Signalling Pathway”, the viability at 0.2 µM [35] was 83.2% and the Activity [36] was “Active”. It also gave an Activity [37] of 71.1%.
